Where two headings read alike, the source gives them in different places.
Test system: M. mycetomatis genome strain MM55
Test: CLSI M38-A2 based in vitro susceptibility screening (XTT or resazurin), growth at fixed concentration
Assay type: cell-based, Madurella mycetomatis
Conditions: Madurella mycetomatis; for Percent fungal survival at 100 µM: read-out: Percentage survival at 100um, 100 uM A (second replicate column)
[1] = mean of three replicates, read-out: Percentage survival at 25um, 25 uM mean
[2] = replicate A, read-out: Percentage survival at 25um, 25 um A
[3] = replicate B, read-out: Percentage survival at 25um, 25 uM B
[4] = replicate C, read-out: Percentage survival at 25um, 25 uM C
[5] = first replicate column, read-out: Percentage survival at 100um, 100 uM A
[6] = mean of three replicates, read-out: Percentage survival at 100um, 100 uM mean
[7] = second replicate column, read-out: Percentage survival at 100um, 100 uM A
[8] = third replicate column, read-out: Percentage survival at 100um, 100 uM A
[9] = mean of replicates, read-out: Percentage survival at 25um, 25 uM mean
[10] = mean of replicates, read-out: Percentage survival at 100um, 100 uM mean
[11] = replicate 1, read-out: Percentage survival at 100um, 100 uM A
[12] = replicate 2, read-out: Percentage survival at 100um, 100 uM A
[13] = replicate 3, read-out: Percentage survival at 100um, 100 uM A
[14] = mean of three, M. mycetomatis MM55, read-out: Percentage survival at 25um, 25 uM mean
[15] = replicate A, M. mycetomatis MM55, read-out: Percentage survival at 25um, 25 um A
[16] = replicate B, M. mycetomatis MM55, read-out: Percentage survival at 25um, 25 uM B
[17] = replicate C, M. mycetomatis MM55, read-out: Percentage survival at 25um, 25 uM C
[18] = mean of three, M. mycetomatis MM55, read-out: Percentage survival at 100um, 100 uM mean
[19] = replicate 1, M. mycetomatis MM55, read-out: Percentage survival at 100um, 100 uM A (first replicate column)
[20] = replicate 2, M. mycetomatis MM55
[21] = replicate 3, M. mycetomatis MM55, read-out: Percentage survival at 100um, 100 uM A (third replicate column)
[22] = replicate 1, read-out: Percentage survival at 100um, 100 uM A (first replicate column)
[23] = replicate 3, read-out: Percentage survival at 100um, 100 uM A (third replicate column)

SMILES	activity at 25 µM [1] [%]	activity at 25 µM [2] [%]	activity at 25 µM [3] [%]	activity at 25 µM [4] [%]	activity at 100 µM [5] [%]	activity at 100 µM [6] [%]	activity at 100 µM [7] [%]	activity at 100 µM [8] [%]	also measured
Nc1nc(=O)c(Br)c(-c2cccc(Cl)c2)[nH]1 [MMV1645152]	84.5	79.7	91.3	82.6	87.5	75.8	77.5	62.2	
Oc1ccc2[nH]c(-c3ccccc3)nc2c1 [MMV292173]		82.5	95.1	92					activity at 25 µM [9]: 89.9%; activity at 100 µM [10]: 93.2%; activity at 100 µM [11]: 100%; activity at 100 µM [12]: 85.4%; activity at 100 µM [13]: 94.1%
Clc1cc2nc(C3CCNCC3)n(Cc3ccc(CNCCc4cnc[nH]4)cc3)c2cc1Cl [MMV1580842]									activity at 25 µM [14]: 86.1%; activity at 25 µM [15]: 92.3%; activity at 25 µM [16]: 94.9%; activity at 25 µM [17]: 71.1%; activity at 100 µM [18]: 66.3%; activity at 100 µM [19]: 60.7%; Percent fungal survival at 100 µM [20]: 74.3%; activity at 100 µM [21]: 64.1%
O=C(O)c1cc(-c2ccccc2)nc2ccccc12 [MMV018362]	91.7	97.4	94.7	83	91	87.9	79.7	93.1	
C[C@@H]1O[C@@H]1P(=O)(O)O [MMV002354]		88.5	86.5	90.5					activity at 25 µM [9]: 88.5%; activity at 100 µM [10]: 88.2%; activity at 100 µM [11]: 81.5%; activity at 100 µM [12]: 93.4%; activity at 100 µM [13]: 89.6%
Nc1nc(Nc2ccc3nc(-c4ccc(F)cc4)cc(N)c3c2)cc(-c2ccccc2)n1 [MMV1593541]									activity at 25 µM [14]: 65.8%; activity at 25 µM [15]: 82.5%; activity at 25 µM [16]: 80.3%; activity at 25 µM [17]: 34.5%; activity at 100 µM [18]: 2.33%; activity at 100 µM [19]: 5.55%; Percent fungal survival at 100 µM [20]: 5.6%; activity at 100 µM [21]: -4.16%
NCc1ccc(S(N)(=O)=O)cc1 [MMV002665]	85.4	82.7	87.5	86.1		90.8			activity at 100 µM [22]: 98.4%; Percent fungal survival at 100 µM (replicate 2): 78.3%; activity at 100 µM [23]: 95.8%
CC(C)(C)NC(=O)N[C@H](C(=O)N1C[C@H]2[C@@H]([C@H]1C(=O)NC(CC1CCC1)C(=O)C(N)=O)C2(C)C)C(C)(C)C (some centres unmarked) [MMV1580497]	88.1	89.4	98	76.8	98.5	93.6	87.9	94.6	
CN1C(=O)C(c2ccccc2)C(=O)N(c2ccccc2)c2cc(C(F)(F)F)ccc21 (centres unmarked) [MMV1782208]									activity at 25 µM (mean of replicates, MM55, read-out: Percentage survival at 25um, 25 uM mean): 99.7%; activity at 25 µM (replicate A, MM55, read-out: Percentage survival at 25um, 25 um A): 120%; activity at 25 µM (replicate B, MM55, read-out: Percentage survival at 25um, 25 uM B): 99.1%; activity at 25 µM (replicate C, MM55, read-out: Percentage survival at 25um, 25 uM C): 80.3%; activity at 100 µM (mean of replicates, MM55, read-out: Percentage survival at 100um, 100 uM mean): 90.1%; activity at 100 µM (replicate 1, MM55, read-out: Percentage survival at 100um, 100 uM A): 94.2%; activity at 100 µM (replicate 2, MM55, read-out: Percentage survival at 100um, 100 uM A): 97.9%; activity at 100 µM (replicate 3, MM55, read-out: Percentage survival at 100um, 100 uM A): 78.1%
O=C(Nc1nnc(-c2ccc(Cl)cc2)o1)c1nc2ccccc2s1 [MMV102833]	111	134	137	62.9		73.2			activity at 100 µM [22]: 81.5%; Percent fungal survival at 100 µM (replicate 2): 66.4%; activity at 100 µM [23]: 71.7%

Source: PMC8815882, “Screening the pandemic response box identified benzimidazole carbamates, Olorofim and ravuconazole as promising drug candidates for the treatment of eumycetoma” (PLoS Neglected Tropical Diseases, 2022)
